{"source": "patent US10358434B2", "about": "“2-(3-pyridinyl)-1H-benzimidazole derivative compound and medicament containing same” (NIHON MEDI-PHYSICS CO., LTD., priority 2014, dated 2019)", "key": {"[1]": {"assay": "In vivo kinetics experiment (radioactivity distribution)", "set-up": "species or system Wistar male rat", "settings": "rat i.v., mean ± SD", "in_short": "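Male Wistar rats (9 weeks) under isoflurane received approximately 1 to 3.7 MBq radiotracer in saline with 1 w/v % ascorbic acid by tail-vein injection. At 10, 30 and 60 min, rats were exsanguinated; blood, organs and remaining body weighed and counted, giving % ID/g and adrenal-to-tissue ratios.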"}, "[2]": {"tested_on": "human adrenal gland section expressing aldosterone-producing adenoma", "assay": "In vitro autoradiography using human adrenal adenoma", "assay_type": "binding", "settings": "section of FIG. 17(b)", "in_short": "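Frozen 7-μm sections of human adrenal bearing aldosterone-producing adenoma were immersed 10 min in radioligand (5-33 kBq/mL) in PBS with 1% fatty-acid-free BSA, washed, then exposed to imaging plates for 16-20 h. Equal-area ROI PSL in adenoma (B2) versus normal cortex (B1) gave B2/B1, corrected for nuclide half-life, added activity and exposure time.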"}, "[3]": {"assay": "Plasma stability evaluation (TLC analysis)", "assay_type": "in vitro ADME", "settings": "37° C., 60 minutes, TLC analysis", "in_short": "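Radiolabelled compounds were incubated in heparin-treated pooled normal human plasma at 37° C for 60 minutes. After methanol deproteinization and centrifugation, stability was assessed by TLC under the conditions used for each compound's synthesis.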"}}, "data": [{"smiles": "FCCn1c(-c2cncc(Cn3cncc3[123I])c2)nc2cc(F)c(Cl)cc21", "note": "[[^123I] 610, 6-Chloro-5-fluoro-1-(2-fluoroethyl)-2-{5-(5-[^123I]iodo-1H-imidazol-1-ylmethyl)pyridin-3-yl}benzimidazole]", "values": [{"measurement": "Adrenal gland/blood ratio of radioactivity accumulation", "setting": "[1]; 10 min after administration", "result": "27.61 ± 6.22"}, {"measurement": "Adrenal gland/fat ratio of radioactivity accumulation", "setting": "[1]; 10 min after administration", "result": "100.35 ± 29.67"}, {"measurement": "Adrenal gland/kidney ratio of radioactivity accumulation", "setting": "[1]; 10 min after administration", "result": "14.48 ± 2.49"}, {"measurement": "Adrenal gland/liver ratio of radioactivity accumulation", "setting": "[1]; 10 min after administration", "result": "3.68 ± 0.80"}, {"measurement": "Adrenal gland/muscle ratio of radioactivity accumulation", "setting": "[1]; 10 min after administration", "result": "62.69 ± 29.38"}, {"measurement": "Adrenal gland/small intestine ratio of radioactivity accumulation", "setting": "[1]; 10 min after administration", "result": "18.10 ± 4.67"}, {"measurement": "Radioactivity distribution Adrenal gland", "setting": "[1]; 10 min after administration", "result": "12.62 ± 2.99", "unit": "% ID/g"}, {"measurement": "Radioactivity distribution Bladder (including urine)", "setting": "[1]; 10 min after administration", "result": "0.22 ± 0.08", "unit": "% ID/g"}, {"measurement": "Radioactivity distribution Blood", "setting": "[1]; 10 min after administration", "result": "0.46 ± 0.03", "unit": "% ID/g"}, {"measurement": "Radioactivity distribution Fat", "setting": "[1]; 10 min after administration", "result": "0.13 ± 0.02", "unit": "% ID/g"}, {"measurement": "Radioactivity distribution Femur", "setting": "[1]; 10 min after administration", "result": "3.25 ± 0.85", "unit": "% ID/g"}, {"measurement": "Radioactivity distribution Heart", "setting": "[1]; 10 min after administration", "result": "0.33 ± 0.02", "unit": "% ID/g"}, {"measurement": "Radioactivity distribution Kidney", "setting": "[1]; 10 min after administration", "result": "0.86 ± 0.06", "unit": "% ID/g"}, {"measurement": "Radioactivity distribution Large intestine", "setting": "[1]; 10 min after administration", "result": "0.13 ± 0.02", "unit": "% ID/g"}, {"measurement": "Radioactivity distribution Liver", "setting": "[1]; 10 min after administration", "result": "3.43 ± 0.26", "unit": "% ID/g"}, {"measurement": "Radioactivity distribution Lung", "setting": "[1]; 10 min after administration", "result": "0.49 ± 0.03", "unit": "% ID/g"}, {"measurement": "Radioactivity distribution Muscle (lower limbs)", "setting": "[1]; 10 min after administration", "result": "0.21 ± 0.05", "unit": "% ID/g"}, {"measurement": "Radioactivity distribution Remaining whole body", "setting": "[1]; 10 min after administration", "result": "0.30 ± 0.04", "unit": "% ID/g"}, {"measurement": "Radioactivity distribution Small intestine", "setting": "[1]; 10 min after administration", "result": "0.71 ± 0.10", "unit": "% ID/g"}, {"measurement": "Radioactivity distribution Spleen", "setting": "[1]; 10 min after administration", "result": "1.43 ± 0.11", "unit": "% ID/g"}, {"measurement": "Radioactivity distribution Stomach", "setting": "[1]; 10 min after administration", "result": "0.66 ± 0.21", "unit": "% ID/g"}, {"measurement": "Radioactivity distribution Testis", "setting": "[1]; 10 min after administration", "result": "0.13 ± 0.02", "unit": "% ID/g"}, {"measurement": "Radioactivity distribution Whole brain", "setting": "[1]; 10 min after administration", "result": "0.04 ± 0.00", "unit": "% ID/g"}, {"measurement": "Adrenal gland/blood ratio of radioactivity accumulation", "setting": "[1]; 30 min after administration", "result": "23.78 ± 2.07"}, {"measurement": "Adrenal gland/fat ratio of radioactivity accumulation", "setting": "[1]; 30 min after administration", "result": "88.69 ± 3.10"}, {"measurement": "Adrenal gland/kidney ratio of radioactivity accumulation", "setting": "[1]; 30 min after administration", "result": "28.65 ± 3.77"}, {"measurement": "Adrenal gland/liver ratio of radioactivity accumulation", "setting": "[1]; 30 min after administration", "result": "6.43 ± 0.94"}, {"measurement": "Adrenal gland/muscle ratio of radioactivity accumulation", "setting": "[1]; 30 min after administration", "result": "94.79 ± 8.71"}, {"measurement": "Adrenal gland/small intestine ratio of radioactivity accumulation", "setting": "[1]; 30 min after administration", "result": "16.12 ± 2.61"}, {"measurement": "Radioactivity distribution Adrenal gland", "setting": "[1]; 30 min after administration", "result": "15.71 ± 1.59", "unit": "% ID/g"}, {"measurement": "Radioactivity distribution Bladder (including urine)", "setting": "[1]; 30 min after administration", "result": "0.28 ± 0.08", "unit": "% ID/g"}, {"measurement": "Radioactivity distribution Blood", "setting": "[1]; 30 min after administration", "result": "0.66 ± 0.04", "unit": "% ID/g"}, {"measurement": "Radioactivity distribution Fat", "setting": "[1]; 30 min after administration", "result": "0.18 ± 0.01", "unit": "% ID/g"}, {"measurement": "Radioactivity distribution Femur", "setting": "[1]; 30 min after administration", "result": "19.34 ± 6.00", "unit": "% ID/g"}, {"measurement": "Radioactivity distribution Heart", "setting": "[1]; 30 min after administration", "result": "0.31 ± 0.02", "unit": "% ID/g"}, {"measurement": "Radioactivity distribution Kidney", "setting": "[1]; 30 min after administration", "result": "0.55 ± 0.02", "unit": "% ID/g"}, {"measurement": "Radioactivity distribution Large intestine", "setting": "[1]; 30 min after administration", "result": "0.16 ± 0.03", "unit": "% ID/g"}, {"measurement": "Radioactivity distribution Liver", "setting": "[1]; 30 min after administration", "result": "2.46 ± 0.18", "unit": "% ID/g"}, {"measurement": "Radioactivity distribution Lung", "setting": "[1]; 30 min after administration", "result": "0.53 ± 0.02", "unit": "% ID/g"}, {"measurement": "Radioactivity distribution Muscle (lower limbs)", "setting": "[1]; 30 min after administration", "result": "0.17 ± 0.02", "unit": "% ID/g"}, {"measurement": "Radioactivity distribution Remaining whole body", "setting": "[1]; 30 min after administration", "result": "0.31 ± 0.02", "unit": "% ID/g"}, {"measurement": "Radioactivity distribution Small intestine", "setting": "[1]; 30 min after administration", "result": "0.98 ± 0.06", "unit": "% ID/g"}, {"measurement": "Radioactivity distribution Spleen", "setting": "[1]; 30 min after administration", "result": "1.00 ± 0.04", "unit": "% ID/g"}, {"measurement": "Radioactivity distribution Stomach", "setting": "[1]; 30 min after administration", "result": "1.27 ± 0.33", "unit": "% ID/g"}, {"measurement": "Radioactivity distribution Testis", "setting": "[1]; 30 min after administration", "result": "0.25 ± 0.02", "unit": "% ID/g"}, {"measurement": "Radioactivity distribution Whole brain", "setting": "[1]; 30 min after administration", "result": "0.04 ± 0.00", "unit": "% ID/g"}, {"measurement": "Adrenal gland/blood ratio of radioactivity accumulation", "setting": "[1]; 60 min after administration", "result": "27.80 ± 8.18"}, {"measurement": "Adrenal gland/fat ratio of radioactivity accumulation", "setting": "[1]; 60 min after administration", "result": "120.42 ± 43.06"}, {"measurement": "Adrenal gland/kidney ratio of radioactivity accumulation", "setting": "[1]; 60 min after administration", "result": "40.68 ± 13.23"}, {"measurement": "Adrenal gland/liver ratio of radioactivity accumulation", "setting": "[1]; 60 min after administration", "result": "20.57 ± 8.91"}, {"measurement": "Adrenal gland/muscle ratio of radioactivity accumulation", "setting": "[1]; 60 min after administration", "result": "147.93 ± 55.03"}, {"measurement": "Adrenal gland/small intestine ratio of radioactivity accumulation", "setting": "[1]; 60 min after administration", "result": "15.84 ± 3.51"}, {"measurement": "Radioactivity distribution Adrenal gland", "setting": "[1]; 60 min after administration", "result": "19.09 ± 6.65", "unit": "% ID/g"}, {"measurement": "Radioactivity distribution Bladder (including urine)", "setting": "[1]; 60 min after administration", "result": "0.29 ± 0.08", "unit": "% ID/g"}, {"measurement": "Radioactivity distribution Blood", "setting": "[1]; 60 min after administration", "result": "0.68 ± 0.05", "unit": "% ID/g"}, {"measurement": "Radioactivity distribution Fat", "setting": "[1]; 60 min after administration", "result": "0.16 ± 0.03", "unit": "% ID/g"}, {"measurement": "Radioactivity distribution Femur", "setting": "[1]; 60 min after administration", "result": "44.38 ± 12.58", "unit": "% ID/g"}, {"measurement": "Radioactivity distribution Heart", "setting": "[1]; 60 min after administration", "result": "0.28 ± 0.04", "unit": "% ID/g"}, {"measurement": "Radioactivity distribution Kidney", "setting": "[1]; 60 min after administration", "result": "0.47 ± 0.02", "unit": "% ID/g"}, {"measurement": "Radioactivity distribution Large intestine", "setting": "[1]; 60 min after administration", "result": "0.19 ± 0.02", "unit": "% ID/g"}, {"measurement": "Radioactivity distribution Liver", "setting": "[1]; 60 min after administration", "result": "0.95 ± 0.10", "unit": "% ID/g"}, {"measurement": "Radioactivity distribution Lung", "setting": "[1]; 60 min after administration", "result": "0.50 ± 0.03", "unit": "% ID/g"}, {"measurement": "Radioactivity distribution Muscle (lower limbs)", "setting": "[1]; 60 min after administration", "result": "0.13 ± 0.01", "unit": "% ID/g"}, {"measurement": "Radioactivity distribution Remaining whole body", "setting": "[1]; 60 min after administration", "result": "0.31 ± 0.02", "unit": "% ID/g"}, {"measurement": "Radioactivity distribution Small intestine", "setting": "[1]; 60 min after administration", "result": "1.18 ± 0.18", "unit": "% ID/g"}, {"measurement": "Radioactivity distribution Spleen", "setting": "[1]; 60 min after administration", "result": "0.78 ± 0.25", "unit": "% ID/g"}, {"measurement": "Radioactivity distribution Stomach", "setting": "[1]; 60 min after administration", "result": "2.97 ± 0.54", "unit": "% ID/g"}, {"measurement": "Radioactivity distribution Testis", "setting": "[1]; 60 min after administration", "result": "0.32 ± 0.05", "unit": "% ID/g"}, {"measurement": "Radioactivity distribution Whole brain", "setting": "[1]; 60 min after administration", "result": "0.03 ± 0.00", "unit": "% ID/g"}, {"measurement": "B2/B1 accumulation ratio", "setting": "[2]", "result": 0.95}, {"measurement": "B2 (PSL value, aldosterone-producing adenoma)", "setting": "[2]; site 71b", "result": 2786}, {"measurement": "B1 (PSL value, normal adrenal cortex)", "setting": "[2]; site 72b", "result": 2931}, {"measurement": "Radiochemical purity after incubation in human plasma", "setting": "[3]", "result": 92, "unit": "%"}]}]}
